Data published in ChEMBL document CHEMBL1201862, “PubChem BioAssay data set” (2004).
Activity calls are given as the source filed them.

Tests used:
[1] = microbe, parasite or virus in culture; format: functional; settings: Mycobacterium tuberculosis
[2] = target: Nonstructural protein 1 (Influenza A virus, UniProt Q194T2); format: functional, Influenza A virus (A/California/07/2009(H1N1))
[3] = target: Prothrombin (Homo sapiens, UniProt P00734); assay: Thrombin 1536 HTS Dose Response Confirmation. [Related pubchem assays: 1046 (Thrombin 1536 HTS; hits were confirmed in this assay)]; format: functional
[4] = target: Cytochrome P450 3A4 (Homo sapiens, UniProt P08684);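 note: CYP3A4 tested as one member of a cytochrome P450 panel screen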
Chain of Cytochrome P450 3A4 (P08684 whole entry): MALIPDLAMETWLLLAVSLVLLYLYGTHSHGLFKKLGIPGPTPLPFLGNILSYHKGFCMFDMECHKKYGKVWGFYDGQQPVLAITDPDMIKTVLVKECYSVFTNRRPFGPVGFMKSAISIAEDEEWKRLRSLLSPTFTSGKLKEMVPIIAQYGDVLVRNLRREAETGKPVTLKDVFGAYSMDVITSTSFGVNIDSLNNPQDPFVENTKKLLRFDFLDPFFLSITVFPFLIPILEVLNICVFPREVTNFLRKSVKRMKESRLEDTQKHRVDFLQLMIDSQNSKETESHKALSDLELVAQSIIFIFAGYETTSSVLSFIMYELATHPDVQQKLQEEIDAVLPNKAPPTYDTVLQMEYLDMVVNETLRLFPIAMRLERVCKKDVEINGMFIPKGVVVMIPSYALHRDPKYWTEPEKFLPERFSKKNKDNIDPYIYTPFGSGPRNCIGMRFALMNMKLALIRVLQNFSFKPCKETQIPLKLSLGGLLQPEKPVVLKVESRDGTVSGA

[5] = HEp-2 cell cytotoxicity, dose response, cytotoxicity control for RSV inhibitor project, HTS (AID 2410); format: functional; settings: human respiratory syncytial virus
[6] = target: T1, Aminopeptidase N (Plasmodium falciparum FcB1/Columbia, UniProt O96935); assay: P. falciparum M1AAP inhibitors, biochemical, fluorogenic H-Leu-NHMec substrate, 1536-well (AID 1445); set-up: species or system Plasmodium falciparum 3D7, 3D7
T1 sequence (O96935 whole entry): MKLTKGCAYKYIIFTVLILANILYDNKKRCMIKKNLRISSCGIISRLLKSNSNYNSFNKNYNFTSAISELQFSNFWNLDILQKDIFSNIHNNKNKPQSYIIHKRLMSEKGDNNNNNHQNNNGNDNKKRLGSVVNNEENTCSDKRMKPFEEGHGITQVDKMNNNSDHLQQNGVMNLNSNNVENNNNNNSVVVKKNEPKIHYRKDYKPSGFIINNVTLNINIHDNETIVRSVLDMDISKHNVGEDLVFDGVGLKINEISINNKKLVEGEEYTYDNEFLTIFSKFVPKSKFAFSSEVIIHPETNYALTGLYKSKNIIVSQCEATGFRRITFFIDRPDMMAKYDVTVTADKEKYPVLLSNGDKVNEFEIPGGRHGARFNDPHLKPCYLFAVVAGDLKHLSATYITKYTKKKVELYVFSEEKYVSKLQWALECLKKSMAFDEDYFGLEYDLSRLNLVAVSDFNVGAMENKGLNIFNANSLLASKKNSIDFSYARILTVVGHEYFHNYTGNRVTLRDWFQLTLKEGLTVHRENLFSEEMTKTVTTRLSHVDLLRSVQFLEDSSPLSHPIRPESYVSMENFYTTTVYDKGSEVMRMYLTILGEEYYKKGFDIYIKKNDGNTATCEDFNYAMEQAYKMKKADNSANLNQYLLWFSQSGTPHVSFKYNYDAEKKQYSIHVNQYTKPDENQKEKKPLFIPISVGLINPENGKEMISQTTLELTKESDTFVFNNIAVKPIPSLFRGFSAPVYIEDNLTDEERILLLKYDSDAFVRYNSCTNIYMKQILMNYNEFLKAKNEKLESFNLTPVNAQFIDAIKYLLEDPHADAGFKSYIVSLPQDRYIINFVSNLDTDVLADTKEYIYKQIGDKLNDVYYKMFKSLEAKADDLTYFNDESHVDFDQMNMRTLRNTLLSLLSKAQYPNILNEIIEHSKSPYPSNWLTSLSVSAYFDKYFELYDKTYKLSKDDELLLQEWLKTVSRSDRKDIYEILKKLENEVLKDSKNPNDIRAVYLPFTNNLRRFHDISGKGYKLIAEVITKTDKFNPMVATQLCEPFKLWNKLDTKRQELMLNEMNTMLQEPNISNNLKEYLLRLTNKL

[7] = target: FAD-linked sulfhydryl oxidase ALR (Homo sapiens, UniProt P55789); assay: inhibitors of human ALR sulfhydryl oxidase, dose response, biochemical, H2O2 detection, luminescence, cherry-pick (AID 493248)
Chain of FAD-linked sulfhydryl oxidase ALR (P55789 whole entry): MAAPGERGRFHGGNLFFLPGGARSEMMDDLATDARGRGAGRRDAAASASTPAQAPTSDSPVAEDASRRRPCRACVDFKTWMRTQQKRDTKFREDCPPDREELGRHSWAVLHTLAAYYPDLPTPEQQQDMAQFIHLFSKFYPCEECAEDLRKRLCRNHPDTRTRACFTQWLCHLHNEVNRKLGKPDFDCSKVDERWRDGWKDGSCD

[8] = HeLa cell cytotoxicity, dose response, cytotoxicity control for MgcRacGAP inhibitor project (AID 624300); format: functional
[9] = target: T2, Rac GTPase-activating protein 1 (Homo sapiens, UniProt Q9H0H5); assay: MgcRacGAP GTPase-activating activity inhibitors, confirmation, biochemical, ADP Hunter fluorescence, primary and confirmatory (AID 624330); format: functional
T2 sequence (Q9H0H5 whole entry): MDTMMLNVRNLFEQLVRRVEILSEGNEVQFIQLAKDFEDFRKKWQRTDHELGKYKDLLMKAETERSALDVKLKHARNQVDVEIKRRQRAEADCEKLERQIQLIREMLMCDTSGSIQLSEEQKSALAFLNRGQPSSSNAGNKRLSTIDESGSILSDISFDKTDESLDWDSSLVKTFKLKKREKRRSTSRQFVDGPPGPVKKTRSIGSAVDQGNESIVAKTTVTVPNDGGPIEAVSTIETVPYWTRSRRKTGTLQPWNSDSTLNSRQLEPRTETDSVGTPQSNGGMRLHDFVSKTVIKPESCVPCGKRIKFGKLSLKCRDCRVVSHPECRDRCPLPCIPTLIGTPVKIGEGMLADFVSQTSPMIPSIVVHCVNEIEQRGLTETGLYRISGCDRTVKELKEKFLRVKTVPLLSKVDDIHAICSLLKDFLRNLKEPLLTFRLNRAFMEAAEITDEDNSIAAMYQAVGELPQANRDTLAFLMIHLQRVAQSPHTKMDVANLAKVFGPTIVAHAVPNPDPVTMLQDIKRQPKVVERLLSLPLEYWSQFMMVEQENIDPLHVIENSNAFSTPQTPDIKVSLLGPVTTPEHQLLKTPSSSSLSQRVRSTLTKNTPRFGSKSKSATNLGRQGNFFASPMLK

[10] = target: T3, RNA-binding protein pos-1 (Caenorhabditis elegans, UniProt G5EF15); assay: inhibitors of POS-1/mex-3 RNA binding, dose response, biochemical, fluorescence polarization (AID 1964);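 note: purified POS-1 fused to maltose binding protein made in E. coli; potency of compounds blocking POS-1 binding to fluorescent RNA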
T3 sequence (G5EF15 whole entry): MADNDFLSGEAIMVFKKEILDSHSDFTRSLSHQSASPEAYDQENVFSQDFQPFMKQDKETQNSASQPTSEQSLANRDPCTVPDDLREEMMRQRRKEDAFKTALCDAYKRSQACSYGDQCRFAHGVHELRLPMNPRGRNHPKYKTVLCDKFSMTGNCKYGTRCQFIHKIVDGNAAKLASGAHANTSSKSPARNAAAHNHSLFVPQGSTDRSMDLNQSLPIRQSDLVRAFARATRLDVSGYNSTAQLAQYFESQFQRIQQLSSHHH

[11] = target: T4, Zinc finger protein mex-5 (Caenorhabditis elegans, UniProt Q9XUB2); assay: MEX-5/TCR-2 RNA interaction inhibitors, dose response, biochemical, C. elegans, fluorescence polarization (AID 1960)
T4 sequence (Q9XUB2 whole entry): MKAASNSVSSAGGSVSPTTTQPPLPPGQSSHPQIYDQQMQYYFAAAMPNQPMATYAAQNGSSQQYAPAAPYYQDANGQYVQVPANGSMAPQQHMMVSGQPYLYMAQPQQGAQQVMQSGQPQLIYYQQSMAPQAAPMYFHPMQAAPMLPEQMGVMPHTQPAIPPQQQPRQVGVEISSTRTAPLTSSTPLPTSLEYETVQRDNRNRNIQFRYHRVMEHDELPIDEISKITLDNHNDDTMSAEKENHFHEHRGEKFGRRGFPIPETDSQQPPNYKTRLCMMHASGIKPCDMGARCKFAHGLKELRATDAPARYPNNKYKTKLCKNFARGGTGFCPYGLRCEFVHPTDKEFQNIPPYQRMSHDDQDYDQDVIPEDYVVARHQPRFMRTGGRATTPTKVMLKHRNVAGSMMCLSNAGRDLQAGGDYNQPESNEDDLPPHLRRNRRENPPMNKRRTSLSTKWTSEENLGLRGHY

[12] = target: T5, Leucine aminopeptidase (Plasmodium falciparum 3D7, UniProt Q8IL11); assay: P. falciparum M17LAP inhibitors, primary screen, biochemical, fluorogenic H-Leu-NHMec substrate, 1536-well (AID 1619); format: functional
T5 sequence (Q8IL11 whole entry): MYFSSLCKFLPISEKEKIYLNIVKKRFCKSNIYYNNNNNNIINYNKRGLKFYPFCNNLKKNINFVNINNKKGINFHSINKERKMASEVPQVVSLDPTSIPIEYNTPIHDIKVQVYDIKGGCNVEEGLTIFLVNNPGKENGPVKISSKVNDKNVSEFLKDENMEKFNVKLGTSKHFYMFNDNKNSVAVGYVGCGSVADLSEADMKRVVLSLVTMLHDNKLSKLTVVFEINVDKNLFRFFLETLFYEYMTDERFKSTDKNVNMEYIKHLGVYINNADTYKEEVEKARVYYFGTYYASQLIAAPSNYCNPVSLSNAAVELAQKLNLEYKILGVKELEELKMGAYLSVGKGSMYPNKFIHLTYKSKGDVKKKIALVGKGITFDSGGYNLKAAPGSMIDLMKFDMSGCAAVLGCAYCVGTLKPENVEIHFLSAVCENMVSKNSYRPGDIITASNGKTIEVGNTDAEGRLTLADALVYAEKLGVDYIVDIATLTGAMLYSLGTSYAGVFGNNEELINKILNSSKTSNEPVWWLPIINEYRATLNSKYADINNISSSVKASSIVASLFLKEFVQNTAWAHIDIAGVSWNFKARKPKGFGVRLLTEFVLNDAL

[13] = target: Glyceraldehyde-3-phosphate dehydrogenase (Homo sapiens, UniProt P04406)
Chain of Glyceraldehyde-3-phosphate dehydrogenase (P04406 whole entry): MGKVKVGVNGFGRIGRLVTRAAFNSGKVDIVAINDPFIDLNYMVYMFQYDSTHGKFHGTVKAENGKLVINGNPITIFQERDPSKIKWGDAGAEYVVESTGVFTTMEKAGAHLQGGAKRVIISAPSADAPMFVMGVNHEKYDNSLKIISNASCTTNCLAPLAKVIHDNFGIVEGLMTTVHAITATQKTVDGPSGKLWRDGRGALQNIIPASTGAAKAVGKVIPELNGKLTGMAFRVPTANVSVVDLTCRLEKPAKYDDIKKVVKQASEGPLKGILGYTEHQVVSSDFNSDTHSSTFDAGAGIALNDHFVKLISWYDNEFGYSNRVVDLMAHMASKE

[14] = target: T6, Heat shock factor protein 1 (Mus musculus, UniProt P38532); assay: inhibition of MG132-induced HSE-luciferase signal, confirmation, cell-based, NIH3T3, luminescence, dose retest (AID 2382); format: functional;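 note: NIH3T3 fibroblasts with HSF1-driven luciferase reporter stressed by proteasome inhibitor MG132; luminescence from HSF1-driven luciferase expression after 8 hours of MG132 stress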
T6 sequence (P38532 whole entry): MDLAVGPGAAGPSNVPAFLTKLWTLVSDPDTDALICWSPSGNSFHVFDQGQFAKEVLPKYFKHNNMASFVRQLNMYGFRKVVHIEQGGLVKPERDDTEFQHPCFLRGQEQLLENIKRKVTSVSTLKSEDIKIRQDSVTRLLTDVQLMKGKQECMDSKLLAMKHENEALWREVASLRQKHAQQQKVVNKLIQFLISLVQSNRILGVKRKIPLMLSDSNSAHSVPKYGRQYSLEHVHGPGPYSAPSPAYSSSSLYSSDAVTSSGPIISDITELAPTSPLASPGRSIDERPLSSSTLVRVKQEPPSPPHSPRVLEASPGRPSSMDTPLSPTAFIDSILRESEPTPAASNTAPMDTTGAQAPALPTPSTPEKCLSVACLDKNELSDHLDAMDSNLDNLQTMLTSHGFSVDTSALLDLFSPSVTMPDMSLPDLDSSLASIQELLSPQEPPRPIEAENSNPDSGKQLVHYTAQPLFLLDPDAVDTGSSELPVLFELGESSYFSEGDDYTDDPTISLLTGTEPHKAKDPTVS

[15] = target: T7, Fatty acid synthase (Homo sapiens, UniProt P49327); assay: FAS thioesterase domain inhibitors, dose response, biochemical, kinetic fluorescence intensity (AID 624326); format: functional;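 note: rate of fluorescence rise from hydrolysis of a fluorogenic O-methyl fluorescein ester substrate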
T7 sequence (P49327 whole entry, the tested form may be a part): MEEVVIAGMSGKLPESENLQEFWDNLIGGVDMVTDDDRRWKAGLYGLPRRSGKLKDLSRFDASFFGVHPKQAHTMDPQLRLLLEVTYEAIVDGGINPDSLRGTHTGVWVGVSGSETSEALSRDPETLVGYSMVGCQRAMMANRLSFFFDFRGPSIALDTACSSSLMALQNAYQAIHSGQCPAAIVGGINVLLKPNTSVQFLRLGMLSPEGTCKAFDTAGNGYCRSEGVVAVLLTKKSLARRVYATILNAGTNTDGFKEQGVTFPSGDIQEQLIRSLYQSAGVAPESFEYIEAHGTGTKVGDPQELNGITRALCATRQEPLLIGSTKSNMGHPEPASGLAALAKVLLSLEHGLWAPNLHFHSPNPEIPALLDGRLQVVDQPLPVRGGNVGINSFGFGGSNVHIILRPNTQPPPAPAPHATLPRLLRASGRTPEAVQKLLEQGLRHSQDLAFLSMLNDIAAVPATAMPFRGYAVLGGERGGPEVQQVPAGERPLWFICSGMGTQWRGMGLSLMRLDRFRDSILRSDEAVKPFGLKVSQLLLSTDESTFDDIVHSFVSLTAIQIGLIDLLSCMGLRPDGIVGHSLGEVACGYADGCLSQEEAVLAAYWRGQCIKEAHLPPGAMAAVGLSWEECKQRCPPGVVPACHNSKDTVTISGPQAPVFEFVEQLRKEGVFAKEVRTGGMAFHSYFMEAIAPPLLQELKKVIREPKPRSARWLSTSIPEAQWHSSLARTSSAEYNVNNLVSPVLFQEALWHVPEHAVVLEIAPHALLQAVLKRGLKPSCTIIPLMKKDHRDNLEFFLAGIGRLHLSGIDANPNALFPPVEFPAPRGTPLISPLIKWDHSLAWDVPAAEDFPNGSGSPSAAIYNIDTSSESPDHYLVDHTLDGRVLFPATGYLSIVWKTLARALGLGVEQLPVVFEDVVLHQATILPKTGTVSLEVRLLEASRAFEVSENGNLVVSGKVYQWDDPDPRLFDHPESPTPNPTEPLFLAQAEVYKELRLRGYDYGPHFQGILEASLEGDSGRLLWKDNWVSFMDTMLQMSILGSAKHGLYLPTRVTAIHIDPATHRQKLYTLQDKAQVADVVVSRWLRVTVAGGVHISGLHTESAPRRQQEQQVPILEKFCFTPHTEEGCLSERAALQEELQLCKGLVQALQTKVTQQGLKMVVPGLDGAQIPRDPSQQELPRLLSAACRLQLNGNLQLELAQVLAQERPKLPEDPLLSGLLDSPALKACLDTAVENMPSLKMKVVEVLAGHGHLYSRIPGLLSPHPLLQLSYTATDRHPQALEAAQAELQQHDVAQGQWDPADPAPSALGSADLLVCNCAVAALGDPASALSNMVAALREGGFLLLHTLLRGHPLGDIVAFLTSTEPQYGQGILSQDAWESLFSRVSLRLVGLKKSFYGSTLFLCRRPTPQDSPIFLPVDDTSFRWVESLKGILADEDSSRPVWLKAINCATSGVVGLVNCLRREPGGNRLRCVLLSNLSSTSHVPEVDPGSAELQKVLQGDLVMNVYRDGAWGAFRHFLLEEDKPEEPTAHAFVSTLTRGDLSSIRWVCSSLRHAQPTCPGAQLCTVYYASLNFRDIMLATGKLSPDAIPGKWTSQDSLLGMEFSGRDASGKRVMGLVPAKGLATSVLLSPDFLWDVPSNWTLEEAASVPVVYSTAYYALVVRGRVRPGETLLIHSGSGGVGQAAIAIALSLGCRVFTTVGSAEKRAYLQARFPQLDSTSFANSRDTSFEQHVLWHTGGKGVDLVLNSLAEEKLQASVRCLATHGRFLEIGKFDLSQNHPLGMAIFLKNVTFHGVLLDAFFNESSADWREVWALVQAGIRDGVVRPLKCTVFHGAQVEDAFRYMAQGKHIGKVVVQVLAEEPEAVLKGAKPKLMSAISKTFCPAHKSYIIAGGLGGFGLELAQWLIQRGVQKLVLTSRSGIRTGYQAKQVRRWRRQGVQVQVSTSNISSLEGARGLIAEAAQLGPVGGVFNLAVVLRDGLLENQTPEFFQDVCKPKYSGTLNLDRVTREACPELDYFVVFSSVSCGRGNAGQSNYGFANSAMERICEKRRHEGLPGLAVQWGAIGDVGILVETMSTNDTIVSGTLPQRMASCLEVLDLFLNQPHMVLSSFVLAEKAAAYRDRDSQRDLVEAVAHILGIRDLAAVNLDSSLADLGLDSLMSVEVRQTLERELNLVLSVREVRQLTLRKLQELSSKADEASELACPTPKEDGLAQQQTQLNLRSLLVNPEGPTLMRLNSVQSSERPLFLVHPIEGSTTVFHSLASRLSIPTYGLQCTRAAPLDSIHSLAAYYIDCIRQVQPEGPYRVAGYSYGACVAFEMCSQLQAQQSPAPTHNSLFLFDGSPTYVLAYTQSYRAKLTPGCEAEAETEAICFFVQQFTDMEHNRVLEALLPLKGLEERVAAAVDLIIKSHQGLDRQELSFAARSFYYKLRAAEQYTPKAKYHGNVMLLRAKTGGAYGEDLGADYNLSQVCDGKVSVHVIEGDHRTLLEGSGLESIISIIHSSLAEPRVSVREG

[16] = target: T7, Fatty acid synthase; assay: FAS thioesterase domain inhibitors, dose response, biochemical, endpoint fluorescence intensity, uHTS hits (AID 624327); format: functional;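 note: fluorescence from hydrolysis of an O-methyl fluorescein acyl ester substrate by the enzyme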
[17] = P. falciparum Dd2 growth inhibitors, dose response, SYBR Green, cherry-picked samples (AID 1159567); format: functional, cell-based

Chain of Nonstructural protein 1 (Q194T2 whole entry): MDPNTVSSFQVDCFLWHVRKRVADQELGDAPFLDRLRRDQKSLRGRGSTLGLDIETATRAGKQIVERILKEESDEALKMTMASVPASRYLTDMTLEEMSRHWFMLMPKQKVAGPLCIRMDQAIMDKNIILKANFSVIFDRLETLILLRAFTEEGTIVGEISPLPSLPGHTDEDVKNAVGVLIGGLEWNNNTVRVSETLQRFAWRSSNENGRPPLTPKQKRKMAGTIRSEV

## Cc1ccc(C(c2nnnn2Cc2cccs2)N2CCN(Cc3ccc4c(c3)OCO4)CC2)cc1 (stereo unspecified)
[1]
  CC50: > 40 µM (active)
[2]
  IC50: > 100 µM (active)

## Nc1nc(-c2cccnc2)nn1C(=O)c1ccc(F)cc1
[3]
  IC50: 2.01 µM (active)

## CCCC(=O)n1nc(-c2cccnc2)nc1NCc1ccc(OC)cc1
[3]
  IC50: 0.0883 µM (active)

## Nc1ccccc1C(=O)N=Nc1[nH]c(N)c2ccccc12
[2]
  IC50: 20.7 µM (active)

## CSc1nc(N)nc(-c2cccs2)c1C#N
[4]
  AC50: 25.1 µM (inconclusive)
[5]
  CC50: > 25 µM (active)

## COc1cc(/C=C/C(=O)O)cc(S(=O)(=O)Nc2ccc3nc(SC)sc3c2)c1OC
[6]
  IC50: 66.4 µM (active)

## CCOC(=O)CCNC(=O)N1CCCC(CNS(=O)(=O)c2cccs2)C1 (stereo unspecified)
[3]
  IC50: > 50 µM (not active)

## CCn1c(/C=C/c2ccc(O)cc2)nc2ccccc2c1=O
[7]
  AC50: 3.35 µM (active)
[8]
  CC50: 100 µM (active)
[9]
  IC50: 33.7 µM (active)

## Cc1cccn2c(=O)c3cc(S(=O)(=O)c4ccccc4)c(=N)n(Cc4cccnc4)c3nc12
[10]
  EC50: 8.88 µM (inconclusive)
[5]
  CC50: > 50 µM (active)
[11]
  EC50: 18.8 µM (inconclusive)

## COc1ccc(NC(=O)CC2COc3ccccc3O2)c(OC)c1 (stereo unspecified)
[12]
  IC50: 7.18 µM (active)

## Cc1cc(C)n(CCOc2ccc(Cl)cc2Cl)n1
[5]
  CC50: > 50 µM (active)

## CCOc1cc(S(=O)(=O)NCc2ccc(OC)cc2)c(OCC)cc1-n1cnnn1
[3]
  IC50: > 50 µM (not active)

## O=C(NCc1ccc2c(c1)OCO2)c1cnc2ccc(S(=O)(=O)N3CCOCC3)cc2c1O
[3]
  IC50: 0.845 µM (active)

## COc1ccc(-c2ccnc3nc(Sc4ncc(C(F)(F)F)cc4Cl)nn23)cc1
[5]
  CC50: 36.7 µM (active)

## O=C1C(Cl)=C(N2CCN(c3ncccn3)CC2)C(=O)N1c1ccnc(Cl)c1
[13]
  IC50: > 50 µM (inconclusive)

## O=C(N/N=C/c1coc2ccccc2c1=O)c1cccc([N+](=O)[O-])c1
[12]
  IC50: 35.2 µM (active)

## COc1ccc(/C=N/Nc2ccc(C(=O)O)cc2)cc1Br
[12]
  IC50: 23.4 µM (active)
[7]
  AC50: 0.837 µM (active)
[14]
  EC50: < 0.16 µM (active)

## COc1cccc(/C=N/NC(=S)Nc2cccc(C(=O)O)c2)c1
[12]
  IC50: 15.7 µM (active)

## O=C(CN1CC(c2ccccc2)CC1=O)N/N=C/c1cc(Br)ccc1O (stereo unspecified)
[6]
  IC50: 11.8 µM (active)
[15]
  IC50: 4.11 µM (active)
[16]
  IC50: 3.61 µM (active)

## O=S(=O)(c1ccc(F)cc1)N1C[C@@H]2N[C@H](C1)[C@H]2c1ccc(-c2ccc(F)cc2)cc1
[17]
  AC50: 2.1 µM (active)

## COc1ccc2c3c(n(C)c2c1)[C@H](CO)N(C(=O)CC1CC1)CC31CCN(Cc2nccs2)CC1
[17]
  AC50: 3.93 µM (active)
